Data set [1] in a line: Rat pharmacokinetic studies. The data set is classed as in vivo. The settings on record: male SD rats, IV 1 mg/kg, plasma. The method, then: Male SD rats were fasted overnight. Compounds of the invention were dissolved in dimethyl acetamide at 10 times the final concentration, then Solutol HS 15 (BASF) was added to a final concentration of 10%. Finally 80% saline was added and vortexed to achieve a clear solution. For the IV dosing three animals were injected via the foot dorsal vein with 1 mg/kg compound. For the PO dosing 5 mg/kg of compound was delivered by oral gavage. Blood was collected via the tail vein into K2EDTA tubes at 5 minutes, 15 minutes, 30 minutes, 1 hour, 2 hours, 4 hours, 8 hours and 24 hours after dosing. The blood was centrifuged at 2000 g for 5 minutes at 4° C. to obtain plasma. The plasma was extracted with acetonitrile and the level of compound was analyzed by LC/MS/MS. The level of compound in plasma was calculated from a standard curve in rat plasma. The IV clearance and area under the curve were calculated using WinNonLin software. The dose adjusted area under the curve for the IV and oral dosing were used to calculate the oral bioavailability.

In data set [2] the target is T1, HDAC1 (Homo sapiens, UniProt Q13547).
T1 construct: purchased BPS Biosciences
Kind of data set: HDAC enzyme assay, HDAC1. The format is biochemical. The note with it: 3.3 ng/ml enzyme, 16 μM tripeptide substrate; given as a range. As to the method:
(§1) Compounds for testing were diluted in DMSO to 50 fold the final concentration and a ten-point three-fold dilution series was made. The compounds were diluted in assay buffer (50 mM HEPES, pH 7.4, 100 mM KCl, 0.001% Tween-20, 0.05% BSA, 20 ⊐M TCEP) to 6-fold their final concentration. The HDAC enzymes (purchased from BPS Biosciences) were diluted to 1.5-fold their final concentration in assay buffer. The tripeptide substrate and trypsin at 0.05 μM final concentration were diluted in assay buffer at 6-fold their final concentration. The final enzyme concentrations used in these assays were 3.3 ng/ml (HDAC1), 0.2 ng/ml (HDAC2), 0.08 ng/ml (HDAC3) and 2 ng/ml (HDAC6). The final substrate concentrations used were 16 μM (HDAC1), 10 μM (HDAC2), 17 μM (HDAC3) and 14 μM (HDAC6).
(§2) Five μL of compounds and 20 μL of enzyme were added to wells of a black, opaque 384 well plate in duplicate. Enzyme and compound were incubated together at room temperature for 10 minutes. Five μL of substrate was added to each well, the plate was shaken for 60 seconds and placed into a Victor 2 microtiter plate reader. The development of fluorescence was monitored for 60 min and the linear rate of the reaction was calculated. The IC50 was determined using Graph Pad Prism by a four parameter curve fit.

Data set [3] has as its target T2, HDAC6 (Homo sapiens, UniProt Q9UBN7).
T2 construct: purchased BPS Biosciences
T2 sequence (Q9UBN7 1-1215): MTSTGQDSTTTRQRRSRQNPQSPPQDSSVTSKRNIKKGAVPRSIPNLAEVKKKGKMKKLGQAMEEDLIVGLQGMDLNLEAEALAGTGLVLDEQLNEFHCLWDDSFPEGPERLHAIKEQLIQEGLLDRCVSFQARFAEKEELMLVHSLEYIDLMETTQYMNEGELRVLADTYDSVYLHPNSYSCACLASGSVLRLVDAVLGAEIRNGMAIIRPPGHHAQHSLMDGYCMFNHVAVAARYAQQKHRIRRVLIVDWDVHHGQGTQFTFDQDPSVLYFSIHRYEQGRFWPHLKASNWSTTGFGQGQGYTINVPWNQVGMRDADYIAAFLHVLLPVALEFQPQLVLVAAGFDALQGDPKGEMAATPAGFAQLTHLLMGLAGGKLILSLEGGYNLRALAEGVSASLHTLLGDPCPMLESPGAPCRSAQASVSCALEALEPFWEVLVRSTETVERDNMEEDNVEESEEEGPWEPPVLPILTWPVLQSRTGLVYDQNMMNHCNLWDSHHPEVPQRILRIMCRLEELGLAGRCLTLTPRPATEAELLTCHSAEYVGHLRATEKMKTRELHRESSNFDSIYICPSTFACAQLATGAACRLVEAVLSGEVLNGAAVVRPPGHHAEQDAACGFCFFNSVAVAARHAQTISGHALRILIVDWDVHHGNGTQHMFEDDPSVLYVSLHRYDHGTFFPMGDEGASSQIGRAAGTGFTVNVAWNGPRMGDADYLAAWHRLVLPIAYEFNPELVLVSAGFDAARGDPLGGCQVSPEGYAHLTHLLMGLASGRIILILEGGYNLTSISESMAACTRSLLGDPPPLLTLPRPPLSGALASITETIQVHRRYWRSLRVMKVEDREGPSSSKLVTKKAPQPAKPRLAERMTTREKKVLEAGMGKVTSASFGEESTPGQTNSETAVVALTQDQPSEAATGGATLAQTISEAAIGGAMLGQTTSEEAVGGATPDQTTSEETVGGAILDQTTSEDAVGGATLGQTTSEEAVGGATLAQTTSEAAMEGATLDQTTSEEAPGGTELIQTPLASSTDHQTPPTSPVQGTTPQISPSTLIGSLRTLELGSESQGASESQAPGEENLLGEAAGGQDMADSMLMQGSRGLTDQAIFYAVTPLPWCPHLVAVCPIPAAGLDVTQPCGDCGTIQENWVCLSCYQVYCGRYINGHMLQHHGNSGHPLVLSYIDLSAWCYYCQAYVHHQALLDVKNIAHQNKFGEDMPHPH
Kind of data set: HDAC enzyme assay, HDAC6. The format is biochemical. The settings on record: 2 ng/ml enzyme, 14 μM tripeptide substrate; given as a range. As to the method: as §1, §2

Data set [4] deals with T3, HDAC2 (Homo sapiens, UniProt Q92769).
T3 construct: purchased BPS Biosciences
As to the kind of experiment: HDAC enzyme assay, HDAC2. The note with it: 0.2 ng/ml enzyme, 10 μM tripeptide substrate; given as a range. The format is biochemical. The method, then: as §1, §2

In data set [5] the target is T4, HDAC3 (Homo sapiens, UniProt O15379).
T4 construct: purchased BPS Biosciences
As to the kind of experiment: HDAC enzyme assay, HDAC3. The format is biochemical. The note with it: 0.08 ng/ml enzyme, 17 μM tripeptide substrate; given as a range. As to the method:
as §1, §2

A short description of data set [6]: Mouse pharmacokinetic studies. The data set is classed as in vivo. The note with it: male C57BL/6 mice, intraperitoneal 5 mg/kg; for Brain AUC: brain homogenate; for AUC / Kp: mouse, ip; for AUC: plasma; for Kp: from AUC values of brain and plasma, read-out: Brain/plasma ratio. The method, then:
Male C57BL/6 mice were fasted overnight. Compounds were dissolved in dimethyl acetamide at 10 times the final concentration, then Solutol HS 15 (BASF) was added to a final concentration of 10%. Finally 80% saline was added and vortexed to achieve a clear solution. Fifteen animals were injected intraperitonealy with 5 mg/kg compound. Blood was collected by retro-orbital bleed at 5 minutes, 15 minutes, 30 minutes, 1 hour, 2 hours, 4 hours, 8 hours and 24 hours after dosing. At 5 minutes, 30 minutes, 1 hour and 4 hours after dosing three animals per time point were sacrificed and brains were removed. The blood was centrifuged at 2000 g for 5 minutes at 4° C. to obtain plasma. Brain samples were homogenized in PBS. The plasma and brain homogenate were extracted with acetonitrile and the level of compound was analyzed by LC/MS/MS. The level of compound in plasma was calculated from a standard curve in rat plasma and the level in brain was calculated from a standard curve in brain homogenate. The area under the curve in plasma and brain were calculated using WinNonLin software. The brain to plasma ratio was determined using the area under the curve values for the two compartments.

T1 sequence (Q13547 whole entry): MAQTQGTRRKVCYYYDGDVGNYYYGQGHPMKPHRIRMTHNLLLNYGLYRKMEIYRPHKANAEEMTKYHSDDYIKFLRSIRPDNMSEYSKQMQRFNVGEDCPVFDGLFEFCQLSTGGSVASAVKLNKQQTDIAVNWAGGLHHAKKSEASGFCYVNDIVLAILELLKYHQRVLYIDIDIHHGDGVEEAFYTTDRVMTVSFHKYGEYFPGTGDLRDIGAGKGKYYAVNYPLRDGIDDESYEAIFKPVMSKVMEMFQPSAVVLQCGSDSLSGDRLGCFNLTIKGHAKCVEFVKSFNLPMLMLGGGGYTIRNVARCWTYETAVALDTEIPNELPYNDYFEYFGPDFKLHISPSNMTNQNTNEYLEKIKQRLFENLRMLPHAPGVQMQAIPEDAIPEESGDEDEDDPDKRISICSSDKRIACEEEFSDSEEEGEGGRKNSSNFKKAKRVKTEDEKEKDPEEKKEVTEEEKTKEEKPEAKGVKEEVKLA
T4 sequence (O15379 whole entry): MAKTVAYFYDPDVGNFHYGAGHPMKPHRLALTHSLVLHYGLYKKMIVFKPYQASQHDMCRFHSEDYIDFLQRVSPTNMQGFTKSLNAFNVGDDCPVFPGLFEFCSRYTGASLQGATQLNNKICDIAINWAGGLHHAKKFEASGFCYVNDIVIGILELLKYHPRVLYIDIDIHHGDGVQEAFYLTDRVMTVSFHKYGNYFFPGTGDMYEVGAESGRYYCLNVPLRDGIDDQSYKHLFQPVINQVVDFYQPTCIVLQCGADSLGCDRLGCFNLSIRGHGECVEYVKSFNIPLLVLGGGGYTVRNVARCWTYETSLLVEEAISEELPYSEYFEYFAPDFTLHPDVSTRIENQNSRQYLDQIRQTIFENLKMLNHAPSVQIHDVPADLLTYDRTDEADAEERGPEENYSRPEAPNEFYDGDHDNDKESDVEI
T4 sequence (Q9Y618 395-489 partner limits assumed): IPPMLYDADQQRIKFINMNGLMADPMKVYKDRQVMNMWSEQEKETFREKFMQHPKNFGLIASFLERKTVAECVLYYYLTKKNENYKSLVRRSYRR
T3 sequence (Q92769 whole entry): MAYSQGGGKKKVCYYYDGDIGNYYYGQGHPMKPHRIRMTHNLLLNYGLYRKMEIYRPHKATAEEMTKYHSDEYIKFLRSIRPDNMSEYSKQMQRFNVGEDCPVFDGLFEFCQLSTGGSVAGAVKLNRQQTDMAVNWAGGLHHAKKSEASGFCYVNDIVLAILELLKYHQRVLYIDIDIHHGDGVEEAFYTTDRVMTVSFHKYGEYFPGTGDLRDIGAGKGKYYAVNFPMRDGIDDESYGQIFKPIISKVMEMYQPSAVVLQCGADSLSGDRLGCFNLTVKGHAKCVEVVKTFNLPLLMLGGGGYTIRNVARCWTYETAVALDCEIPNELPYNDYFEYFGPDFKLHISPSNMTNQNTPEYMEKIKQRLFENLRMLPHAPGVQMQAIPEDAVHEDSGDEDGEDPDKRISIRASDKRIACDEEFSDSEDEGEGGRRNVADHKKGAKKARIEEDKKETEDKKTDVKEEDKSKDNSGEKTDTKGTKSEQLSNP

With `COc1ccc(Cl)cc1CNc1ccc(C(=O)NO)cc1` [Compound 001], the clearance (in general, the rate of elimination divided by the concentration) in data set [1] lay within 16.7 to 83.3 mL/min/kg. The half-inhibitory concentration (IC50) (usually the concentration needed to halve the response being measured) lay within 200 to 400 nM in data set [2], 1 to 6 nM in data set [3], 200 to 400 nM in data set [4] and 200 to 400 nM in data set [5].
Take `O=C(NO)c1ccc(NC(c2ccccc2)c2ccccc2)cn1` [Compound 002]: in data set [6], the “Brain AUC” value is 450 to 600 ng·h/mL; the AUC – broadly, the area under the concentration-time curve, a measure of exposure – lay within 200 to 250 ng·h/mL; the Kp fell in the range of 1 to 5.
For the compound `COc1ccc(F)cc1CNc1ccc(C(=O)NO)cc1` [Compound 005], the clearance in data set [1] fell in the range of 167 to 333 mL/min/kg. The IC50 in data set [2] is 500 to 800 nM; in data set [3], 1 to 6 nM; in data set [4], 500 to 800 nM; in data set [5], 500 to 800 nM.
As for `O=C(NO)c1ccc(NCc2cc(F)ccc2F)cc1` [Compound 007], the IC50 lay within 450 to 600 nM in data set [2], 4 to 8 nM in data set [3], 450 to 600 nM in data set [4] and 700 to 800 nM in data set [5].
Take `O=C(NO)c1ccc(N(c2ccccc2)c2ccccc2)cn1` [Compound 013]: in data set [6], the “Brain AUC” value is 600 to 800 ng·h/mL, the AUC lay within 150 to 250 ng·h/mL and the Kp lay in the range of 2 to 6.
In data set [1], `O=C(NO)c1ccc(NCc2ccccc2)cc1` [Compound 011] registered a clearance of 91.7 to 117 mL/min/kg. Also, the IC50 fell in the range of 700 to 800 nM in data set [2], 15 to 25 nM in data set [3], 800 to 900 nM in data set [4] and 1200 to 1300 nM in data set [5].
In the case of `O=C(NO)c1ccc(NCc2cc(Cl)ccc2Cl)cc1` [Compound 004], the IC50 lay within 100 to 200 nM in data set [2], 4 to 8 nM in data set [3], 100 to 200 nM in data set [4] and 100 to 200 nM in data set [5].
Turning to `O=C(NO)c1ccc(NC2(c3ccccc3)CCCCC2)cc1` [Compound 010], the clearance in data set [1] fell in the range of 33.3 to 66.7 mL/min/kg. The concentration for half-maximal inhibition (IC50) lay in the range of 1000 to 2000 nM in data set [2], 4 to 8 nM in data set [3], 1500 to 2000 nM in data set [4] and 6000 to 7000 nM in data set [5].
On to `COc1ccc(OC)c(CNc2ccc(C(=O)NO)cc2)c1` [Compound 006], for which the IC50 in data set [2] was in the range of 450 to 600 nM; in data set [3], 30 to 40 nM; in data set [4], 900 to 1100 nM; in data set [5], 900 to 1100 nM.
With `O=C(NO)c1ccc(NC2(c3ccccc3)CC2)cc1` [Compound 009], in data set [1], the clearance was in the range of 50 to 117 mL/min/kg. Besides, the IC50 lay in the range of 50 to 100 nM in data set [2], 0.5 to 2.5 nM in data set [3], 250 to 350 nM in data set [4] and 400 to 500 nM in data set [5].
In the same order, the values of `O=C(NO)c1ccc(NC2(c3cc(F)ccc3F)CCOCC2)cc1` [Compound 008] are 83.3 to 167 mL/min/kg, 150 to 250 nM, 0.1 to 1 nM, 200 to 300 nM and 1000 to 1100 nM.
On to `O=C(NO)c1ccc(NCc2ccccc2)cn1` [Compound 012], for which, in data set [6], the “Brain AUC” value fell in the range of 100 to 150 ng·h/mL, the AUC was in the range of 75 to 125 ng·h/mL and the Kp lay within 1 to 3.

The values are drawn from US10370324B2, “Phenyl and pyridinyl hydroxamic acids” (Acetylon Pharmaceuticals, Inc., priority 2016, dated 2019).
